In paper PMC12186697, “HypoxyStat, a small-molecule form of hypoxia therapy that increases oxygen-hemoglobin affinity” (Cell, 2025):
“And” between values parts separate entries of the source, which are not always exact repeats. Equal values may be shown once.

How the values were obtained:
[1] = system: Ndufs4 KO mouse; assay: Ndufs4 KO mouse model of Leigh syndrome (survival, body weight, temperature, behavior, neuropathology); assay type: in vivo
Description: We continuously bred Ndufs4 Het x Het mice to generate KO and controls for our experiments. Ndufs4+/− and WT mice were used as controls as they are identical in all previously reported assays. Ndufs4 mice were obtained directly from Jackson labs (#027058). Pups were weaned and genotyped at ~21 d after birth. The age of mice at the time of experiments is described throughout the text. Male and female mice were used throughout studies. All cages were provided with food and water, with hydrated gel provided to newly weaned cages. Body weights were recorded at every dosing. Mice were euthanized according to guidelines at 20% drop in peak body weight. All animal studies were approved by the Institutional Animal Care & Use Committee (IACUC) Program at UCSF/Gladstone.
Mice were administered HypoxyStat at 600 mg/kg every other day or 400mg/kg daily via oral gavage. For the disease prevention experiments, KO mice that underwent daily dosing were dosed starting ~P30 for 1 week of 200mg/kg daily, followed by 400mg/kg daily to allow for gradual dose escalation. For the reversal study, KO mice were dosed once with 200mg/kg on postnatal day ~P55, followed by 400mg/kg daily. HypoxyStat was formulated as a suspension at 60 mg/mL, 40mg/ml or 80mg/ml depending on dose in 0.5%HPMC and stored at 4 °C. The formulation was determined to be stable for at least 8 weeks. Animal body weight was taken at time of dosing to determine appropriate dosing volume (10 mL/kg for every other day dosing, 5ml/kg for daily dosing). Vehicle treated mice were administered the same volume of 0.5% HPMC.
Mice were euthanized via CO2 inhalation. To perfuse the whole body, the right atrium was nicked and a needle was inserted into the left ventricle. Ice-cold PBS was slowly injected first, followed immediately by 4% PFA solution. The brain was removed, stored in 4% PFA for 24–48 h, and then washed with PBS for 5 min (3 times). The brains were placed in 70% ethanol followed by paraffin embedding. For paraffin sections, brains were sagittally sectioned at 5 μm thickness. Prior to staining, sections were deparaffinized. Antigen retrieval was performed by heating the slides to boiling temperature in 10 mM sodium citrate solution (pH 6) in a microwave, followed by heating for 10 minutes. The sections were rinsed 3 times for 5 minutes each with PBS. They were then incubated in a blocking solution containing 5% donkey serum (DS) in PBS-Tx (PBS with 0.2% Triton X-100) for 60 minutes at room temperature. After blocking, sections were incubated overnight at 4C with the primary antibody IBA1 (Genetex GTX100042, 1:250) and NeuN (Sigma, MAB377, 1:500). Afterward, the sections were rinsed 3 times for 5 minutes with PBS-Tx. Next, they were incubated with a fluorophore-conjugated secondary antibodies (Invitrogen, A21206 or A31570) for 1 hour at room temperature. Following secondary antibody incubation, the sections were rinsed 3 times for 5 minutes with PBS-Tx, and then once for 5 minutes with PBS. Histology was quantified using either the percentage of Iba1+ positive signal or blinded scoring (on the scale of 1–5).
The open field instrument (San Diego Instruments) was used to measure spontaneous locomotor activity. Mice were placed in open field chambers and allowed to acclimate for 5 min before movement tracking for 20min. Spontaneous locomotor activity was measured based on beam breaks and recorded by the instrument. Age of measurements is +/− 5 days for practical purposes without any age bias between groups.

[2] = system: Hb; design: method as in PMID 28337324; details: Figure 2A; cited from earlier work
[3] = system: hypoxia transcriptional response (HIF); assay: Hypoxia biomarkers in mice (plasma Epo, hematocrit, blood glucose, hypoxia-induced brain transcripts); assay type: in vivo, mouse; details: GBT-440
Description: Plasma Epo measurements were performed with R&D Systems Epo Elisa Kit (MEP00B) according to manufacturer directions. Briefly, whole blood was collected with anticoagulant before centrifugation within 30 minutes of collection and stored at −80C until day of analysis. On the day of Epo assay, samples were thawed and diluted 2-fold and incubated in the assay plate for two hours. Each well was washed five times before the addition of Epo Conjugate followed by a two-hour incubation. Each well was washed five times before adding Substrate Solution to develop for 30 minutes before addition of Stop Solution. The optical density of each well was determined at 450nm and correction wavelength of 540/570.
Hematocrit was determined with an iStat VetScan 1 with Zoetis Chem 8+ cartridges. Blood glucose measurements were performed using OneTouch UltraPlus glucometer. Whole blood chemistry measurements were performed on a VetScan HM5.
Half of the hindbrain was collected at necropsy and immediately flash frozen. For RNA extraction, a stainless-steel bead (Qiagen) and 1 mL TRIzol™ Reagent (Thermo Fisher Scientific) were added to the frozen samples, which were rapidly lysed using a tissue lyser (Qiagen) for five 1-minute cycles of 30 Hz frequency. Subsequent steps for RNA isolation were identical as previously described.[9] Reverse transcription was performed using the QuantiTect Reverse Transcription Kit (Qiagen) instructions. Briefly, gDNA was wiped out from samples containing 1 μg RNA. gDNA-free RNA samples were reverse transcribed following Qiagen’s instructions. […] For each set of triplicates, an average CT value was obtained, and the difference in average CT between the target gene and β-actin was calculated (ΔCT). Next, the difference in ΔCT value between each sample and the average of the normoxia samples was calculated (ΔΔCT). Relative expression of each gene was determined by calculating 2^−ΔΔCT.

[4] = design: method as in PMID 28337324; details: Figure 2A, cited from earlier work
[5] = target: T1, hemoglobin (Hb) in human red blood cells (Homo sapiens, UniProt P69905); assay: Oxy-hemoglobin dissociation curve (Hemox Analyzer), p50; assay type: biochemical
T1 construct: incubated for at least one hour at 37C with whole blood before Hemox analysis; endogenous in cells; host or cells: human red blood cells / whole blood
T1 sequence (P69905 2-142 limits assumed): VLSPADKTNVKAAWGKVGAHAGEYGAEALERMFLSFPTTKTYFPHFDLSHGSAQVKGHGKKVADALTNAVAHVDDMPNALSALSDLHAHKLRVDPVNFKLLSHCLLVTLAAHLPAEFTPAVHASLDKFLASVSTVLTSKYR
T1 sequence (P68871 2-147 partner limits assumed): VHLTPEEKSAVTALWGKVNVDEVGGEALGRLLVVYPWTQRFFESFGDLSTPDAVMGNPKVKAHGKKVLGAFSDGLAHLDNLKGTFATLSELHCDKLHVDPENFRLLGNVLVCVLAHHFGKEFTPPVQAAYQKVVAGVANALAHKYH
Description: One of the most extensively studied compounds for sickle cell anemia is GBT-440 (Voxelotor) (Figure 1B).[25] The extent of left-shifting can be assessed by determining the p50 or the partial pressure of oxygen at which half of the total Hb pool is bound to oxygen. We incubated human red blood cells with GBT-440 and observed a ~75% decrease in p50 (from ~28 to ~7 mmHg), consistent with previously reported values (Figure 1D). Experiments were performed using a HemOx analyzer that monitors oxygen saturation via Hb absorbance across a range of dissolved oxygen tensions. Upon further review of the sickle cell anemia literature, we found another compound, hereafter termed HypoxyStat (Figure 1B), which appeared to have a similar p50 as GBT-440.[26] We confirmed that HypoxyStat induced an ~82% decrease in p50 (Figure 1D).
Oxy-hemoglobin dissociation analysis was performed by the UCSF RBC laboratory using the TCS Hemox Analyzer (TCS Medical Products Company, Huntington Valley, PA). Initial pO2 is set to 160 mmHg. Hemoglobin is fully oxygenated under these conditions (HbO% =100). Replacement of air with nitrogen lowers pO2 and is measured by Clark electrode along with the change in the absorbance spectrum of hemoglobin. At a pO2 of 0 mmHg, hemoglobin is fully deoxygenated (HbO% =0). The relation between pO2 and HbO% is plotted, and the pO2 at which HbO% = 50% is defined as P50. The typical sigmoid de-oxygenation curve of normal blood with a P50 of 26–28 mmHg is used as a control for incubation conditions and to ensure proper function of the Hemox analyzer. For left-shifter comparison, the compounds were dissolved in HEPES buffered saline and then incubated for at least one hour at 37C with whole blood before Hemox analysis. A control of whole blood incubated with vehicle is also reported.

[6] = GBT-440 daily maximal dosing from P30

CC(C)n1nccc1-c1ncccc1COc1cccc(O)c1C=O [GBT-440]
lifespan of Ndufs4 KO mice vs vehicle ([1]; GBT-440 daily maximal dosing (400 mg/kg after 1 week at 200 mg/kg) from P30): did not result in a significant lifespan extension | spontaneous movement (open field), Ndufs4 KO mice [1, 6]: failed to rescue | time on an accelerating rotating rod, Ndufs4 KO mice [1, 6]: failed to rescue | body temperature of Ndufs4 KO mice ([1]; GBT-440 daily maximal dosing from P30, ~P55): failed to rescue | Hb occupancy [2]: 6.5% | hypoxia biomarker response compared with HypoxyStat and inhaled hypoxia [3]: significantly blunted response | Mouse PO blood:plasma ([4]; PO): 63.2 | Mouse PO half-life ([4]; PO): 15.8 h | Cmax ([4]; mouse): 2210 nM | p50 ([5]; human red blood cells incubated 1 h with 10 mM compound, vehicle ~28 mmHg): 7.2 mmHg and ~ 7 mmHg | decrease in p50 ([5]; human red blood cells incubated with compound, vs vehicle): ~ 75%
